From the NIST ThermoML archive (doi:10.1021/je2000606)

How the values were obtained:
[1] = 101.33 kPa, Liquid; for viscosity: Falling or rolling sphere viscometry; for mass density: Vibrating tube method
[2] = refractive index (Na D-line) (dimensionless); conditions: 101.33 kPa, Liquid, Standard Abbe refractometry
[3] = xn = mol fraction of the nth substance listed; conditions: 101 kPa, Liquid
[4] = refractive index (Na D-line) (dimensionless); xn = mol fraction of the nth substance listed; conditions: 101 kPa, Liquid

CCCCn1cc[n+](C)c1.C[C@H](N)C(=O)[O-] [3-butyl-1-methyl-1H-imidazolium L-alaninate]
Conditions	mass density, [1] [kg/m3]	refractive index, [2]	viscosity, [1] [mPa·s]
298.15 K	1080.2	1.5184	78.3
303.15 K	1076.5	1.5168	59.77
308.15 K	1074.2	1.5153	47.03
313.15 K	1071.1	1.5135	37.95

CCCCn1cc[n+](C)c1.C[C@H](N)C(=O)[O-] [3-butyl-1-methyl-1H-imidazolium L-alaninate] + CO
Conditions	mass density, [3] [kg/m3]	refractive index, [4]	viscosity, [3] [mPa·s]
298.15 K, x1 = 0.0986	906.31	1.3952	1.824
298.15 K, x1 = 0.2015	968.55	1.438	2.979
298.15 K, x1 = 0.2837	998.11	1.4595	4.892
298.15 K, x1 = 0.3985	1024.98	1.4787	8.963
298.15 K, x1 = 0.5105	1042.62	1.4914	15.2
298.15 K, x1 = 0.6035	1053.47	1.4994	22.23
298.15 K, x1 = 0.7011	1062.38	1.5058	31.13
298.15 K, x1 = 0.8152	1070.44	1.5111	45.03
298.15 K, x1 = 0.9139	1076	1.5147	60.33
303.15 K, x1 = 0.0986	901.65	1.3926	1.753
303.15 K, x1 = 0.2015	963.93	1.435	2.76
303.15 K, x1 = 0.2837	993.59	1.4564	3.714
303.15 K, x1 = 0.3985	1020.56	1.4755	6.403
303.15 K, x1 = 0.5105	1038.31	1.4883	10.73
303.15 K, x1 = 0.6035	1049.27	1.4964	16.01
303.15 K, x1 = 0.7011	1058.3	1.5029	22.63
303.15 K, x1 = 0.8152	1066.5	1.5087	32.91
303.15 K, x1 = 0.9139	1072.2	1.5126	45.02
308.15 K, x1 = 0.0986	896.59	1.3901	1.829
308.15 K, x1 = 0.2015	959.34	1.4323	2.349
308.15 K, x1 = 0.2837	989.32	1.4533	3.429
308.15 K, x1 = 0.3985	1016.81	1.4723	5.513
308.15 K, x1 = 0.5105	1034.85	1.485	9.168
308.15 K, x1 = 0.6035	1046.07	1.493	13.4
308.15 K, x1 = 0.7011	1055.34	1.5	18.29
308.15 K, x1 = 0.8152	1063.85	1.5059	26.27
308.15 K, x1 = 0.9139	1069.71	1.5105	35.3
313.15 K, x1 = 0.0986	892.46	1.3881	1.34
313.15 K, x1 = 0.2015	955.28	1.4297	2.113
313.15 K, x1 = 0.2837	985.35	1.4502	2.792
313.15 K, x1 = 0.3985	1012.89	1.4692	5.197
313.15 K, x1 = 0.5105	1031.1	1.4817	8.3
313.15 K, x1 = 0.6035	1042.42	1.4898	11.91
313.15 K, x1 = 0.7011	1051.82	1.497	15.87
313.15 K, x1 = 0.8152	1060.49	1.5034	21.92
313.15 K, x1 = 0.9139	1066.51	1.5082	29.18

CCCCn1cc[n+](C)c1.C[C@H](N)C(=O)[O-] [3-butyl-1-methyl-1H-imidazolium L-alaninate] + OCc1ccccc1
Conditions	mass density, [3] [kg/m3]	refractive index, [4]	viscosity, [3] [mPa·s]
298.15 K, x1 = 0.1012	1052.86	1.5355	6.989
298.15 K, x1 = 0.1939	1059.8	1.534	8.647
298.15 K, x1 = 0.3103	1066.02	1.532	11.9
298.15 K, x1 = 0.3971	1069.57	1.5304	14.7
298.15 K, x1 = 0.4864	1072.4	1.5287	18.75
298.15 K, x1 = 0.6015	1075.14	1.5264	26.24
298.15 K, x1 = 0.6945	1076.58	1.5245	34.42
298.15 K, x1 = 0.8015	1077.73	1.5223	46.72
298.15 K, x1 = 0.9026	1078.72	1.5203	61.33
303.15 K, x1 = 0.1012	1048.56	1.5333	5.691
303.15 K, x1 = 0.1939	1055.61	1.5319	6.738
303.15 K, x1 = 0.3103	1061.88	1.53	9.274
303.15 K, x1 = 0.3971	1065.49	1.5285	11.46
303.15 K, x1 = 0.4864	1068.42	1.5268	14.62
303.15 K, x1 = 0.6015	1071.16	1.5246	20.5
303.15 K, x1 = 0.6945	1072.71	1.5227	26.62
303.15 K, x1 = 0.8015	1073.95	1.5206	35.94
303.15 K, x1 = 0.9026	1074.98	1.5186	46.96
308.15 K, x1 = 0.1012	1045.09	1.5308	4.951
308.15 K, x1 = 0.1939	1052.25	1.5295	5.953
308.15 K, x1 = 0.3103	1058.75	1.5277	7.695
308.15 K, x1 = 0.3971	1062.51	1.5263	9.977
308.15 K, x1 = 0.4864	1065.53	1.5247	12.61
308.15 K, x1 = 0.6015	1068.43	1.5226	17.36
308.15 K, x1 = 0.6945	1070.11	1.5209	22.13
308.15 K, x1 = 0.8015	1071.46	1.5189	29.01
308.15 K, x1 = 0.9026	1072.58	1.517	36.89
313.15 K, x1 = 0.1012	1041.62	1.5286	4.28
313.15 K, x1 = 0.1939	1048.77	1.5273	5.515
313.15 K, x1 = 0.3103	1055.35	1.5256	7.175
313.15 K, x1 = 0.3971	1059.07	1.5242	8.904
313.15 K, x1 = 0.4864	1062.18	1.5227	11.02
313.15 K, x1 = 0.6015	1065.2	1.5206	15.01
313.15 K, x1 = 0.6945	1066.87	1.5189	18.65
313.15 K, x1 = 0.8015	1068.31	1.517	24.47
313.15 K, x1 = 0.9026	1069.52	1.5152	30.69

OCc1ccccc1 [benzenemethanol]
Conditions	mass density, [1] [kg/m3]	refractive index, [2]	viscosity, [1] [mPa·s]
298.15 K	1041.64	1.5371	5.55
303.15 K	1037.42	1.5349	4.675
308.15 K	1033.84	1.5323	4.01
313.15 K	1030.43	1.5301	3.522

CO [methanol]
Conditions	mass density, [1] [kg/m3]	refractive index, [2]	viscosity, [1] [mPa·s]
298.15 K	786.4	1.3266	0.532
303.15 K	782.2	1.3243	0.515
308.15 K	776.7	1.3224	0.465
313.15 K	772.9	1.3208	0.441
